Results as given in ChEMBL document CHEMBL3870317, “FtsZ inhibition and redox modulation with one chemical scaffold: Potential use of dihydroquinolines against mycobacteria” (Eur J Med Chem, 2016).
≈ marks a conversion by molar mass, not a printed value. Calls of active or inactive are those of the source. The rule behind the calls is not given here.

Assays:
[1] = test system: Mycolicibacterium smegmatis; assay: Antimycobacterial activity against Mycobacterium smegmatis MC2 155 measured after 48 hrs by resazurin dye-based MABA method; format: functional; conditions: str. MC2 155, 48 h
[2] = (§1) Inhibition of recombinant Mycobacterium tuberculosis FtsZ GTPase activity expressed in Escherichia coli assessed as inorganic phosphate release measured after 15 mins in presence of GTP using malachite green dye by fluorescence spectrophotometry
[3] = (§2) Inhibition of recombinant Mycobacterium tuberculosis FtsZ polymerization expressed in Escherichia coli assessed as inhibition of protofilament formation by measuring intensity of light scattering in presence of GTP by fluorescence spectrophotometry method
[4] = test system: Mycobacterium tuberculosis; assay: Inhibition of recombinant Mycobacterium tuberculosis FtsZ GTPase activity expressed in Escherichia coli assessed as inorganic phosphate release at 50 uM measured after 15 mins in presence of GTP using malachite green dye by fluorescence spectrophotometry relative to control
[5] = test system: Mycobacterium tuberculosis; assay: as §1
[6] = test system: Mycobacterium tuberculosis; assay: as §2
[7] = Displacement of ANS from recombinant Mycobacterium tuberculosis FtsZ expressed in Escherichia coli by double reciprocal plot analysis
[8] = test system: Mycolicibacterium smegmatis; assay: Induction of ROS generation in Mycobacterium smegmatis MC2 155 assessed as release of DCF at 25 to 50 uM measured after 1 hr by DCFH-DA based fluorescence spectrophotometry; format: functional; conditions: str. MC2 155
[9] = test system: Mycolicibacterium smegmatis MC2 155; assay: Inhibition of recombinant Mycobacterium smegmatis MC2 155 FtsZ assessed as increase in cell length at 50 uM measured after 2 hrs by phase contrast microscopy relative to control
[10] = biological target: T1, Cell division protein FtsZ (Bacillus subtilis (strain 168)) (UniProt P17865); assay: Inhibition of recombinant Bacillus subtilis 168 FtsZ assessed as increase in cell length at 50 uM measured after 2 hrs by phase contrast microscopy relative to control; conditions: Bacillus subtilis subsp. subtilis str. 168
T1 sequence (whole entry): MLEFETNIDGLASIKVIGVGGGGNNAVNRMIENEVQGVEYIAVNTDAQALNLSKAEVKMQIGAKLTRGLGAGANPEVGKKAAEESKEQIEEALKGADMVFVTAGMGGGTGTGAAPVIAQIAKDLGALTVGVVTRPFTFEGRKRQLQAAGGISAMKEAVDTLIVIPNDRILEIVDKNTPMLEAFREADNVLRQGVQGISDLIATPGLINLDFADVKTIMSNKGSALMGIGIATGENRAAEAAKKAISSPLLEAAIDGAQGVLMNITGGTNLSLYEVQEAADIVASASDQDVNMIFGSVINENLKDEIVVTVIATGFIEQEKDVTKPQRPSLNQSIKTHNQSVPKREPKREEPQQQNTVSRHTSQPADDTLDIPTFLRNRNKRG

[11] = test system: Mycobacterium tuberculosis; assay: Inhibition of Mycobacterium tuberculosis FtsZ polymerization at 50 uM measured after 1 hr by sodium tungstate staining based transmission electron microscopic method
Bacillus subtilis = assay: Induction of ROS generation in Bacillus subtillis 168 assessed as DCF release at 25 to 50 uM measured after 1 hr by DCFH-DA based fluorescence microscopy; format: functional; conditions: subsp. subtilis str. 168
[12] = test system: Mycobacterium tuberculosis; assay: Inhibition of recombinant Mycobacterium tuberculosis FtsZ expressed in Escherichia coli assessed as inhibition of protofilament formation by measuring intensity of light scattering at 400 nM after 1000 sec in presence of GTP by fluorescence spectrophotometry
[13] = test system: Mycobacterium tuberculosis; assay: Displacement of ANS from recombinant Mycobacterium tuberculosis FtsZ expressed in Escherichia coli assessed as red shift at 20 to 140 uM after 30 mins by fluorescence analysis
[14] = test system: Mycobacterium tuberculosis; assay: Inhibition of recombinant Mycobacterium tuberculosis FtsZ expressed in Escherichia coli assessed as inhibition of protofilament formation by measuring intensity of light scattering at 400 nM up to 300 sec in presence of GTP by fluorescence spectrophotometry
[15] = biological target: T1, Cell division protein FtsZ (Bacillus subtilis (strain 168)); assay: Binding affinity to Bacillus subtilis 168 FtsZ assessed as effect on Z-ring assembly at 100 uM by FITC-staining based immunofluorescence microscopic method; conditions: Bacillus subtilis subsp. subtilis str. 168

CO[C@H]1/C=C/O[C@@]2(C)Oc3c(C)c(O)c4c(O)c(c(/C=N/N5CCN(C)CC5)c(O)c4c3C2=O)NC(=O)/C(C)=C\C=C\[C@H](C)[C@H](O)[C@@H](C)[C@@H](O)[C@@H](C)[C@H](OC(C)=O)[C@@H]1C [RIFAMPIN]
MIC [1]: 1.75 µg/mL (≈ 2.13 µM)

COC(=O)C1=Cc2cc3ccccc3nc2N([C@@H](CO)C(=O)OC)C1
IC50 ([2]; read-out: IC50): 66 µM
IC50 ([3]; read-out: IC50): 61.5 µM
MIC [1]: 15 µg/mL (≈ 43.8 µM)

CC(C)c1c(O)ccc2c1CC[C@H]1C(C)(C)CCC[C@]21C
inhibition [4]: 73 to 74%

COC(=O)C1=Cc2ccccc2N(S(=O)(=O)c2ccc(C)cc2)C1
IC50 [2]: Nd(Insoluble)
IC50 [3]: Nd(Insoluble)

CCN(CC)CCN1CC(C(=O)OC)=Cc2cc([N+](=O)[O-])ccc21
IC50 ([2]; read-out: IC50): 38.3 µM
inhibition [5]: Dose-dependent effect
IC50 ([3]; read-out: IC50): 34 µM
inhibition [6]: Dose-dependent effect
MIC [1]: 7.5 µg/mL (≈ 22.5 µM)

COC(=O)C1=Cc2cc([N+](=O)[O-])ccc2N([C@@H](CO)C(=O)OC)C1
Kd [7]: 8.6 µM
Activity [8]: Active
fold change (FC) [9]: 4
fold change (FC) [10]: 6
inhibition [11]: Active
IC50 ([2]; read-out: IC50): 39 µM
inhibition [5]: Dose-dependent effect
Activity (Bacillus subtilis): Active
inhibition [12]: Dose-dependent effect
IC50 ([3]; read-out: IC50): 33.4 µM
inhibition [6]: Dose-dependent effect
inhibition [13]: Active
inhibition [14]: Active
MIC [1]: 7.5 µg/mL (≈ 22.3 µM)
Activity [15]: Active

COC(=O)C1=Cc2cc([N+](=O)[O-])ccc2N(Cc2ccccc2)C1
IC50 ([2]; read-out: IC50): 197 µM
IC50 ([3]; read-out: IC50): 184 µM
MIC [1]: 31.5 µg/mL (≈ 97.1 µM)

COC(=O)C1=Cc2cc([N+](=O)[O-])ccc2N(CCO)C1
IC50 ([2]; read-out: IC50): 41.5 µM
IC50 ([3]; read-out: IC50): 40.1 µM
MIC [1]: 3.9 µg/mL (≈ 14 µM)

O=C(O)C1=Cc2cc([N+](=O)[O-])ccc2N(Cc2ccccc2)C1
IC50 ([2]; read-out: IC50): 86.6 µM
IC50 ([3]; read-out: IC50): 95 µM
MIC [1]: 31.2 µg/mL (≈ 101 µM)

CN[C@@H]1[C@H](O[C@H]2[C@H](O[C@H]3[C@H](O)[C@@H](O)[C@H](N=C(N)N)[C@@H](O)[C@@H]3N=C(N)N)O[C@@H](C)[C@]2(O)C=O)O[C@@H](CO)[C@H](O)[C@H]1O [STREPTOMYCIN]
MIC [1]: 3 µg/mL (≈ 5.16 µM)

COC(=O)C1=Cc2cc([N+](=O)[O-])ccc2N(Cc2ccc3c(c2)OCO3)C1
IC50 ([2]; read-out: IC50): 78.5 µM
inhibition [5]: Dose-dependent effect
IC50 ([3]; read-out: IC50): 77.3 µM
inhibition [6]: Dose-dependent effect
MIC [1]: 0.95 µg/mL (≈ 2.58 µM)

CCN1CC(C(=O)OC)=Cc2cc(F)c(F)cc21
IC50 ([2]; read-out: IC50): 196 µM
inhibition [5]: Dose-dependent effect
IC50 ([3]; read-out: IC50): 210 µM
inhibition [6]: Dose-dependent effect
MIC [1]: 0.9 µg/mL (≈ 3.55 µM)

CCN1CC(C(=O)OC)=Cc2cc([N+](=O)[O-])ccc21
IC50 [2]: Nd(Insoluble)
IC50 [3]: Nd(Insoluble)

COC(=O)C1=Cc2cc([N+](=O)[O-])ccc2N(Cc2ccccn2)C1
IC50 ([2]; read-out: IC50): 186 µM
IC50 ([3]; read-out: IC50): 194 µM
MIC [1]: 62.5 µg/mL (≈ 192 µM)

C[C@H](c1ccccc1)N1CC(C(=O)O)=Cc2cc([N+](=O)[O-])ccc21
IC50 ([2]; read-out: IC50): 25.3 µM
inhibition [5]: Dose-dependent effect
IC50 ([3]; read-out: IC50): 40.9 µM
inhibition [6]: Dose-dependent effect
MIC [1]: 7.5 µg/mL (≈ 23.1 µM)

CC(C)(C)OC(=O)C1=Cc2cc([N+](=O)[O-])ccc2N(Cc2ccccc2)C1
IC50 ([2]; read-out: IC50): > 200 µM
IC50 ([3]; read-out: IC50): > 200 µM
MIC [1]: 7.5 µg/mL (≈ 20.5 µM)

CCCCN1CC(C(=O)OC)=Cc2cc([N+](=O)[O-])ccc21
IC50 ([2]; read-out: IC50): > 200 µM
IC50 ([3]; read-out: IC50): > 200 µM
MIC [1]: 7.5 µg/mL (≈ 25.8 µM)

COc1ccc2cc3[n+](cc2c1OC)CCc1cc2c(cc1-3)OCO2
inhibition [4]: 79 to 80%

COC(=O)C1=Cc2cc([N+](=O)[O-])ccc2N([C@@H](C)C(=O)OC)C1
IC50 [2]: Nd(Insoluble)
IC50 [3]: Nd(Insoluble)

COC(=O)C1=Cc2cc([N+](=O)[O-])c(Cl)cc2N([C@@H](C)c2ccccc2)C1
inhibition [11]: Active
IC50 ([2]; read-out: IC50): 40 µM
IC50 ([3]; read-out: IC50): 41.4 µM
MIC [1]: 15 µg/mL (≈ 40.2 µM)

CC(=O)C1=Cc2cc([N+](=O)[O-])ccc2N(Cc2ccccc2)C1
IC50 ([2]; read-out: IC50): > 200 µM
IC50 ([3]; read-out: IC50): > 200 µM
MIC [1]: 7.5 µg/mL (≈ 24.3 µM)

COCCCN1CC(C(=O)OC)=Cc2cc([N+](=O)[O-])ccc21
IC50 ([2]; read-out: IC50): 89.3 µM
inhibition [5]: Dose-dependent effect
IC50 ([3]; read-out: IC50): 88.6 µM
inhibition [6]: Dose-dependent effect
MIC [1]: 1.95 µg/mL (≈ 6.37 µM)
